According to patent US20060280725A1, “Compositions and methods of treating and diagnosing hepatoma” (priority 2003, published 2006):

Tests used:
ASCT2 mRNA = test: Northern blot analysis of ASCT2 mRNA after siRNA transfection; format: cell-based, human
Description: FIG. 15. […] B is the phospho-imager quantification of the bands in A. C is the concentration curve for siRNA1, showing that 50 nM is sufficient for maximum silencing of ASCT2 expression.
siRNAs that are specific to ASCT2 were designed using several known algorithms and then checked for specificity. Four (4) siRNAs, i.e., siRNA1 (which comprises SEQ ID NO:3), siRNA2 (which comprises SEQ ID NO:4), siRNA3 (which comprises SEQ ID NO:5), and siRNA4 (which comprises SEQ ID NO:6), were synthesized. SK-Hep cells were transfected with 50 nM concentration of any one of siRNA1, 2, 3 or 4 using Lipofectamine™ 2000 (Invitrogen™ life technologies) based on the protocols set forth in Gitlin, L., Karelsky, S., and Andino, R. (2002), Nature 418: 430-434; Yu, J. Y., DeRuiter, S. L., and Turner, D. L. (2002), Proc. Nat. Acad. Sci. USA 99:6047-6052; and “Transfecting siRNA into Mammalian Cells Using Lipofectamine™ 2000,” Form No. 18057N, Doc. Rev. 102802 by Invitrogen Corporation (2002), which are herein incorporated by reference. At 24 hours and at 48 hours, RNAs were extracted from the transfected cells and the expression of ASCT2 was examined by Northern blot analysis (see FIG. 15A).
Hepatoma cells were then treated with Lipofectamine™ 200 without siRNA1, with 12.5 nM, 25 nM, 50 nM or 100 nM siRNA1.

hepatoma cells [1] = test: Glutamine transport after siRNA1 treatment; format: cell-based, human
Description: (§1) FIG. 16. […] Panel C are photos from the experiment of panel B.
(§2) The physiological effects of downregulating ASCT2 expression by administration of siRNA1 in hepatoma cells were studied. Glutamine transport, which was measured as nanomoles of glutamine per milligram of total protein per 30s, was examined at 24 hours and at 48 hours in Lipofectamine treated cells and Lipofectamine+50 nM siRNA1. […] Cell counts were made at 48 hours of hepatoma cultures, each of which were started with the same number of viable cells, receiving either Lipofectamine™ 200 alone or Lipofectamine™ 200 plus siRNA1. After 48 hours, a 40% reduction in the number of cells that had received isRNA1 (which comprises SEQ ID NO:3) relative to control cells was observed.

hepatoma cells [2] = test: Cell counts after siRNA1 treatment; format: cell-based, human
Description: as §1, §2

ASCT2/ATB^0 RNA = test: Northern blot analysis of ASCT2/ATB0 silencing in six human liver cancer cell lines; format: cell-based; conditions: 50 nM
Text: FIG. 17. […] Panel B are the phospho-imager quantification results of the blot shown in panel A (normalized to beta actin mRNA levels).
RNA was extracted from six (6) human liver cancer cell lines and subject to northern blot analysis using ASCT2/ATB^0 DNA as a probe. Actin RNA was probed as a baseline control. […] Those autoradiograms were subjected to phospho-imager quantitative analysis and normalized to actin RNA expression (FIG. 17, panel B). The designation “L” refers to Liopfectamine™ 200 alone, and “S” refers to Liopfectamine™ 200 plus siRNA at 50 nM.

Substance: siRNA1: siRNA specific to ASCT2, which comprises SEQ ID NO:3 (AGGAGGTGCTCGATTCGTT; listed as DNA, chemistry not given here; listed as Homo sapiens)
- relative effectiveness at reducing ASCT2 expression (mRNA relative to actin) (ASCT2 mRNA; SK-Hep, 50 nM siRNA, 24 and 48 hours): most effective of the four siRNAs
- concentration sufficient for maximum silencing of ASCT2 expression (ASCT2 mRNA; tested 12.5, 25, 50, 100 nM): 50 nM
- reduction in glutamine transport relative to controls (hepatoma cells [1]; 50 nM, 24 and 48 hours, vs Lipofectamine alone, p<0.01): greater than 50%
- ASCT2 function (glutamine uptake) (hepatoma cells [1]; FIG. 16 panel A): substantially decreases
- cellular loss compared to transfection reagent alone (hepatoma cells [2]; FIG. 16 panel B): leads to cellular loss (death)
- reduction in the number of cells relative to control cells (hepatoma cells [2]; after 48 hours, vs Lipofectamine alone): 40%
- relative ASCT2/ATB^0 expression (normalized to actin RNA) (ASCT2/ATB^0 RNA): significant reduction
